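Cultured in 96-well plates, cells were exposed to test compound for 48 hours across five concentrations. At the GI50, growth is halved.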 Active and inactive are the calls of the source. Cut-off read from the data, not from the text of the source: active = GI50 up to about 1.1 µM and inactive = higher.
Tests used:
Assay in all cases: NCI-60 cell line screen, 48 h
[1] = system: DLD-1
[2] = system: DMS-114
[3] = system: HOP-18
[4] = system: KM-20L2
[5] = system: LXFL 529
[6] = system: SNB-78
[7] = system: XF498
[8] = system: DMS-273
[9] = system: RXF 631

SMILES	GI50 [1]	GI50 [2]	GI50 [3]	GI50 [4]	GI50 [5]	GI50 [6]	GI50 [7]	GI50 [8]	GI50 [9]
COc1ccc(/C=C2\CCc3ccccc3C2=O)cc1OC	21.9 µM (inactive)	17.1 µM (inactive)	33 µM (inactive)	30.8 µM (inactive)	25.7 µM (inactive)	33.7 µM (inactive)	17.7 µM (inactive)		
CN(C)CCn1cnc2ncccc2c1=O	> 100 µM (inactive)	53.1 µM (inactive)		> 100 µM (inactive)	> 100 µM (inactive)	> 100 µM (inactive)	> 100 µM (inactive)	> 100 µM (inactive)	
Cc1ccc(S(=O)(=O)N/N=C/CN2C(=O)c3ccccc3C2=O)cc1	> 100 µM (inactive)	> 100 µM (inactive)		> 100 µM (inactive)	> 100 µM (inactive)		> 100 µM (inactive)	> 100 µM (inactive)	
O=C1NC(=O)C2C1C1C=C3c4ccccc4N(c4ccccc4)C32[C@H]2C(=O)NC(=O)[C@@H]12 (stereo partly specified)	> 100 µM (inactive)	> 100 µM (inactive)	> 100 µM (inactive)	> 100 µM (inactive)	> 100 µM (inactive)	> 100 µM (inactive)		> 100 µM (inactive)	
COc1cc(NS(C)(=O)=O)ccc1Nc1c2ccccc2nc2ccccc12 [AMSACRINE]	2.79 µM (inactive)	0.184 µM (active)	0.7 µM (active)	1.45 µM (inactive)	3.32 µM (inactive)	3.97 µM (inactive)		0.0659 µM (active)	0.509 µM (active)
CC(=O)Oc1ccc2c(c1)C(=O)c1nc(C)c(C)nc1C2=O	42.9 µM (inactive)	34.8 µM (inactive)	> 83.2 µM (inactive)	34 µM (inactive)	> 51.8 µM (inactive)	48.2 µM (inactive)	43.9 µM (inactive)	> 73.8 µM (inactive)	30.5 µM (inactive)
Nc1ncn(C2C=C(CO)C(O)C2O)c(=O)n1 (stereo unspecified)	63.5 µM (inactive)		> 100 µM (inactive)	66.1 µM (inactive)	> 100 µM (inactive)	> 100 µM (inactive)		> 100 µM (inactive)	47.6 µM (inactive)
CC(C)(C)c1ccc2c(c1)S(=O)(=O)Nc1ccc(Cl)cc1NS(=O)(=O)c1cc(C(C)(C)C)ccc1OCCOCCOCCO2	85.7 µM (inactive)	36.3 µM (inactive)	> 100 µM (inactive)			30.6 µM (inactive)		56.8 µM (inactive)	
CC(c1ccc2c(c1)CCC1C2CC2OC23CC=CC(=O)[C@]13C)C1C[C@]2(C)O[C@]2(C)[C@H](O)O1 (stereo partly specified)		0.429 µM (active)		34.8 µM (inactive)	10.6 µM (inactive)		56.9 µM (inactive)	21.7 µM (inactive)	
CC(C)=CC(=O)Cc1nc2ccc([N+](=O)[O-])cc2[nH]c1=O	72.1 µM (inactive)	51.3 µM (inactive)		> 100 µM (inactive)	53.7 µM (inactive)	> 100 µM (inactive)	41.3 µM (inactive)	> 100 µM (inactive)	
CC(=O)O[C@H]1C(=O)[C@@]2(C)C(C(OC(=O)c3ccccc3)[C@]3(O)CC(OC(=O)C(O)C(NC(=O)c4ccccc4)c4ccc(C)cc4)C(C)=C1C3(C)C)[C@]1(OC(C)=O)CO[C@@H]1C[C@@H]2O (stereo partly specified)	0.186 µM (active)	0.0197 µM (active)	4.01 µM (inactive)	0.031 µM (active)	0.0199 µM (active)	0.507 µM (active)	0.0025 µM (active)	0.0123 µM (active)	
S=C1CNC(=S)CN1	> 100 µM (inactive)	> 100 µM (inactive)	> 100 µM (inactive)	> 100 µM (inactive)	> 100 µM (inactive)	> 100 µM (inactive)		> 100 µM (inactive)	> 100 µM (inactive)
Cc1ccc(N2C(=O)/C(=C/c3ccc(N(CCC#N)CCC#N)cc3C)N=C2c2cc([N+](=O)[O-])ccc2Cl)cc1	> 100 µM (inactive)	75.2 µM (inactive)	> 100 µM (inactive)		> 100 µM (inactive)	> 100 µM (inactive)		> 100 µM (inactive)	> 100 µM (inactive)
O=C(CC1(O)C(=O)Nc2ccccc21)c1ccc(F)cc1 (stereo unspecified)	> 100 µM (inactive)	> 100 µM (inactive)		> 100 µM (inactive)	> 100 µM (inactive)	> 100 µM (inactive)	> 100 µM (inactive)	> 100 µM (inactive)	
COc1ccc(SS(=O)(=O)c2ccc(OC)cc2)cc1	21.9 µM (inactive)	16 µM (inactive)	22.5 µM (inactive)	21.3 µM (inactive)	17.7 µM (inactive)	53.7 µM (inactive)			39 µM (inactive)
CN(Cc1cnc2nc(N)nc(N)c2n1)c1ccc(C(=O)N[C@@H](CCC(=O)O)C(=O)O)cc1 [METHOTREXATE]	0.0356 µM (active)	0.0288 µM (active)	15.9 µM (inactive)	0.044 µM (active)	0.0336 µM (active)	117 µM (inactive)	68.5 µM (inactive)	0.0308 µM (active)	
O=C(O)c1cc(Cl)cc(NC(=O)C(Cl)Cl)c1Cl	> 100 µM (inactive)	> 100 µM (inactive)	> 100 µM (inactive)	> 100 µM (inactive)	> 100 µM (inactive)	> 100 µM (inactive)	> 100 µM (inactive)	> 100 µM (inactive)	> 100 µM (inactive)
CC(=O)Nc1ccc(/C=C/C(=O)c2sc(-c3nc(C)c(C(=O)/C=C/c4ccc(NC(C)=O)cc4)s3)nc2C)cc1	> 100 µM (inactive)	> 100 µM (inactive)		> 100 µM (inactive)	> 100 µM (inactive)	> 100 µM (inactive)	> 100 µM (inactive)	> 100 µM (inactive)	> 100 µM (inactive)
CC(C)(C)C1=CC(CCC(=O)Nc2ccccc2[N+](=O)[O-])=NC(S)N1 (stereo unspecified)	> 100 µM (inactive)	> 100 µM (inactive)	> 100 µM (inactive)	> 100 µM (inactive)	> 100 µM (inactive)	> 100 µM (inactive)			> 100 µM (inactive)
CNC(=O)C1CCc2nnc(-c3ccccc3)n21 (stereo unspecified)	> 100 µM (inactive)	> 100 µM (inactive)	> 100 µM (inactive)	> 100 µM (inactive)	> 100 µM (inactive)	> 100 µM (inactive)		> 100 µM (inactive)	> 100 µM (inactive)
Nc1nc(=O)n([C@@H]2CC[C@H](CO)O2)cc1F	> 100 µM (inactive)	> 100 µM (inactive)	> 100 µM (inactive)	> 100 µM (inactive)	> 100 µM (inactive)	> 100 µM (inactive)		> 100 µM (inactive)	
CCc1c(OC(C)=O)c2c(NC3OC(COC(C)=O)C(OC(C)=O)C(OC(C)=O)C3OC(C)=O)nc(SC)nc2oc1=O (stereo unspecified)	> 100 µM (inactive)	> 100 µM (inactive)	> 100 µM (inactive)	> 100 µM (inactive)	> 100 µM (inactive)	> 100 µM (inactive)	> 100 µM (inactive)		> 100 µM (inactive)
NC(=O)N=C(N(Cc1ccccc1)Cc1ccccc1)N(Cc1ccccc1)Cc1ccccc1	4.83 µM (inactive)			2.69 µM (inactive)	4.8 µM (inactive)	25.1 µM (inactive)		3.41 µM (inactive)	
COC(=O)C1=C(C=O)C2C=CC1C2 (stereo unspecified)	27.9 µM (inactive)	> 57.7 µM (inactive)	30.5 µM (inactive)	> 63 µM (inactive)	21.1 µM (inactive)	74.1 µM (inactive)	27.2 µM (inactive)	> 44.2 µM (inactive)	> 100 µM (inactive)
O=C(NC1CCCC1=O)c1ccccc1 (stereo unspecified)	> 100 µM (inactive)	> 100 µM (inactive)		> 100 µM (inactive)		> 100 µM (inactive)	> 100 µM (inactive)	> 100 µM (inactive)	> 100 µM (inactive)

From ChEMBL document CHEMBL1201862, “PubChem BioAssay data set” (2004)
